Assay: gradient 5% acetonitrile 3 min, to 50% in 2 min, to 85% in 15 min, held 3 min, 100 µL/min
Conditions: column: Zorbax Extend-C18 2.1 x 50 mm; eluents: water / acetonitrile, 0.1% formic acid
Outline: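 Retention times come from adduct peaks that were picked computationally and then checked by hand. The standards, pure and pooled in mixtures of ~100 molecules, were run on a Zorbax Extend-C18 column (2.1 × 50 mm, 1.8 μm) at 100 μL/min with water and acetonitrile, each with 0.1% formic acid. Detection was by quadrupole time-of-flight mass spectrometry in positive and negative ionization mode, with a dead volume of 40 μL and a dwell volume of 900 μL.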

SMILES | RP-LC retention time [s]
CCCC(=O)Nc1ccc2c(c1)CN(C(=O)c1ccc(F)cc1F)C(C(=O)N(C)C)C2 (stereo not given) | 704
O=C(Cn1cccc(-c2nc(-c3ccc(F)cc3)no2)c1=O)NCC1CCCO1 (stereo not given) | 706
CCOCCOC1CCN(C(=O)c2sccc2C)CC1 | 741
O=C(CNC(=O)c1c[nH]c2ccccc12)Nc1cc(Cl)ccc1O | 695
COc1ccccc1-c1noc(Cn2ncn3nc(-c4cccs4)cc3c2=O)n1 | 948
CCOC(=O)c1c(CN(C)C)n(C)c2cc(C#N)c(O)cc12 | 598
Cc1ccc2c(c1)N(Cc1cc(F)cc(F)c1)N=C(C(=O)N1CCC(C)CC1)S2(=O)=O | 1080
COc1ccc(N2C=C(C#N)S(=O)(=O)c3ccc(F)cc32)cc1Cl | 948
Nc1ccc(S(=O)(=O)Nc2cnc3c(Cl)cccc3n2)cc1 | 719
CC(C)CC(=O)Nc1ccc(S(=O)(=O)N2CCC(c3ccncc3)CC2)cc1 | 616
Cc1ccc(-c2nnc(CC(=O)NCC(C)C)o2)cc1 | 775
CCCOc1ccc(-c2nc(N3CCC(C)CC3)c3ccccc3n2)cc1 | 1010
CCc1cccc(NC(=O)Cn2c(=O)c3cc(C4CC4)nn3c3ncccc32)c1 | 844
COc1ccc(Cn2cc(S(=O)(=O)N3CCCC3)ccc2=O)cc1 | 796
O=C(NCc1ccncc1)c1sc2ncccc2c1-n1cccc1 | 592
Cc1ccc(-c2cc3c4nnc(SCC(=O)NCCC(C)C)n4ccn3n2)cc1C | 942
Cc1sc(NC(=O)CCc2ccccc2)nc1-c1ccc2c(c1)NC(=O)C(C)O2 (stereo not given) | 687
COc1ccc(NC(=O)Cn2nc3cc(C)nc(-c4ccccc4)n3c2=O)cc1OC | 736
O=C(NCc1ccco1)c1cc(N2C(=O)CCS2(=O)=O)ccc1Cl | 675
COc1ccc(S(=O)(=O)N(C)C2CCc3nn(CC4CC4)c(=O)n3CC2)cc1Cl (stereo not given) | 810
COc1cccc(Cn2c(N3CCSCC3)nc(C)cc2=O)c1 | 869
Cc1cnc(C2CN(Cc3cccc(OC(F)(F)F)c3)C2)n1CC1CC1 | 594
COc1cccc(N2CCN(c3ccnc(SCC(=O)Nc4ccc(Cl)cc4)n3)CC2)c1 | 805

SMILES | RP-LC retention time [s]
COc1cc(Cl)c(NC(=O)Cn2cc(-c3nnc(C)o3)c3ccccc32)c(OC)c1 | 836
O=C(NCc1cccs1)c1cccnc1N1CCNC(c2ccccc2)C1 (stereo not given) | 612
Cc1cccc(-c2noc(-c3nc(C)no3)n2)c1 | 1050
Cc1ccc(-c2nnc(-c3nc(NCc4ccco4)c4ccccc4n3)o2)cc1 | 995
Cc1cc(C)c(S(=O)(=O)N2CCc3c(c(-c4nnc(-c5ccccc5F)o4)nn3C)C2)cc1C | 1070
COc1ccc(C2(C(=O)N3CCC(c4ncc(C)n4C(C)C)C3)CC2)cc1 (stereo not given) | 530
O=S(=O)(NCC#CCN1CCc2ccccc2C1)c1cccs1 | 558
CN(Cc1ccco1)C(=O)C1CCCN(c2nc3cccnc3s2)C1 (stereo not given) | 745
CCNC(=O)C1N(C(C)C)C(=O)C12CCCCC2 (stereo not given) | 630
Fc1ccccc1N1CCN(c2ncccc2-c2nc(-c3ccccc3)no2)CC1 | 1390
Fc1ccc(-c2nc(CC3CCNC3)no2)cc1 (stereo not given) | 621
COc1ccc(OC)c(NC(=O)N2CCN(c3nc4ccccc4nc3C(F)(F)F)CC2)c1 | 1070
Cc1ccc(CCNC(=O)C2CCCN(S(=O)(=O)c3cc(-c4noc(C)n4)cs3)C2)cc1 (stereo not given) | 1060
COCc1noc([C@@H]2CC(F)(F)CN2C(=O)C2CC=CC2)n1 | 777
Cc1ccsc1C(=O)N1CCCC2(CC1)CN(C)C(=O)O2 (stereo not given) | 661
Cc1cc(C)cc(Oc2nccn3c(=O)n(CC(=O)NC(C)(C)C)nc23)c1 | 859
CCc1cc(=O)n(CC(=O)N(CC)Cc2ccccc2)c(N)n1 | 639
CCc1ccccc1NC(=O)CSc1cc(N2CCN(c3ccc(OC)cc3)CC2)ncn1 | 1010
Cc1ccc(CN(C)C(=O)NC(C)C)s1 | 804
CCN(CC)c1ccc(NC(=O)C2Cc3cc(S(=O)(=O)N4CCCC4)ccc3N2C(C)=O)c(C)c1 (stereo not given) | 676
COc1ccc(Cn2nc3ccc(S(=O)(=O)N4CCCCC4)cn3c2=O)cc1F | 918
CCN(CC)C(=O)c1ccc(-c2nc3cc(NS(=O)(=O)c4cc(F)ccc4C)ccc3n2C)cc1 | 723
O=C(CCc1ccccc1)Nc1ccc2c(c1)N(C(=O)c1ccco1)CCC2 | 871

SMILES | RP-LC retention time [s]
COc1cccc(CC(=O)Nc2cnn(C)c(=O)c2N2CCOCC2)c1 | 725
Cn1c([N+](=O)[O-])cnc1N1CCN(c2nncs2)C1=O | 689
O=C(Nc1ccccc1)C1CC(=O)N(CCc2c[nH]c3ccc(Cl)cc23)C1 (stereo not given) | 825
O=C(Cn1c(-c2cccs2)cc2cc(Cl)ccc21)NCCCN1CCOCC1 | 726
Cc1ccc(Nc2ncccc2S(N)(=O)=O)cc1 | 795
Cc1ccc(-c2nc3nc4c(c(N5CCCC5)n3n2)CCC4)cc1 | 909
Cc1nc(-c2ccc(-c3noc(COc4ccc(F)cc4)n3)cc2)cs1 | 1160
CC1CCN(S(=O)(=O)c2ccc3c(c2)CCCC(=O)N3CC(=O)Nc2ccccc2)CC1 | 958
CCNC(=O)c1ccc2nc(C)c(C)nc2c1 | 618
COc1ccccc1NC(=O)Cn1nc2c(N3CCCCCC3)nccn2c1=O | 696
COc1ccc(N2CCN(C(=O)C3CCN(CCc4c[nH]c5ncccc45)CC3)CC2)cc1 | 567
N#Cc1ccc(C(=O)NCc2[nH]nc3ccccc23)cc1 | 699
Cc1ccc(Nc2c(-c3ccc(C)cc3)nc3c(C)cccn23)cc1 | 808
Cc1ccc(C)c(-c2cc3c4nn(CC(=O)NC5CCCC5)c(=O)n4ccn3n2)c1 | 909
Cc1ccc(C)c(S(=O)(=O)N2CCCN(C)c3ccccc32)c1 | 1100
O=C(NCc1ccccc1F)C1CCN(c2cncnc2N2CCCC2)CC1 | 641
O=C(NC1(c2nc(-c3ccccc3)no2)CCCCC1)c1ccc(C(F)(F)F)cc1 | 1250
CCOC(=O)C1=C(CN2CCC(N3CCCCC3)CC2)NC(=O)NC1c1ccc(OC(C)C)cc1 (stereo not given) | 605
Cc1ccc(S(=O)(=O)Cc2ccc(C(=O)N3CCN(c4ccccn4)CC3)o2)cc1 | 606
CCn1c(=O)c(=O)n(CC(=O)N2CCN(c3ccccn3)CC2)c2ccccc21 | 563
CC(C)CCNC(=O)C1CCN(c2nc3ccsc3c(=O)n2-c2ccccc2)CC1 | 838
C=CCNC(=O)C1COc2ccccc2O1 (stereo not given) | 630
CCOC(=O)c1c(C)[nH]c(NC(=O)N2CCN(c3ccc(OC)cc3)CC2)c1C | 703

SMILES | RP-LC retention time [s]
CCCN1CCN(c2cc(C(=O)O)c3cc(NC(=O)c4ccc(F)cc4)ccc3n2)CC1 | 888
Cc1ccc(CN2C(=O)NC3(CCN(C(=O)COc4ccc(C)cc4)CC3)C2=O)cc1 | 876
CC1(C(=O)NCc2ccc(F)cc2)CN(S(=O)(=O)c2ccccc2)CC(=O)N1C1CC1 (stereo not given) | 816
COc1cccc(-c2ccnc3nc(Cc4ccc(F)cc4)nn23)c1 | 922
NS(=O)(=O)c1ccc(NC2(C(=O)O)CCCC2)cc1 | 1010
CCOc1ccc(NC(=O)N2CCC(n3c(-c4ccco4)nc4cccnc43)C2)cc1 (stereo not given) | 759
CCC(=O)NCCc1csc(C2CCN(C(=O)CC3CCCCC3)CC2)n1 | 765
CCc1ccccc1NC(=O)C(=O)NCC1CCN(CCOC)CC1 | 562
Cn1cc(C(=O)NCCc2ccccc2)c(S(=O)(=O)N2CCSCC2)n1 | 1030
O=C(NCC1CCCO1)C(=O)NCC(c1cccs1)S(=O)(=O)c1ccc(F)cc1 (stereo not given) | 749
CSc1ccc(CCNC(=O)c2ccc3c(c2)nc(C)c(=O)n3C)cc1 | 765
CCCN1C(=O)c2cc(S(=O)(=O)N3CCCCC3C)ccc2Oc2cccnc21 (stereo not given) | 1170
CCN1C(=O)COc2ccc(-c3noc(-c4ccccc4F)n3)cc21 | 1070
Cc1ccc(S(=O)(=O)c2cnc(N3CCN(c4cccc(C)c4)CC3)nc2N)cc1 | 1130
COc1cccc(-c2cc3n(n2)C(NC2CC2)CNC3=O)c1 (stereo not given) | 562
Cc1nc(C)c(C(=O)NCc2c(-c3ccccc3)nc3sc(C)nn23)s1 | 737
O=c1c2cc(-c3ccc(F)cc3)nn2cnn1Cc1nc(-c2ccc3c(c2)OCO3)no1 | 1220
COc1ccc2cc1Oc1ccc(cc1)CC1c3c(cc(OC)c4c3Oc3cc5c(cc3O4)CCNC5C2)CCN1C (stereo not given) | 601
O=C(NCC1CCCO1)c1ccc(-c2ccc(N3CCCCC3)nc2)cc1 (stereo not given) | 613
CCC(C)NC(=O)C1c2ccccc2CC(=O)N1C (stereo not given) | 658
O=C(Cn1c(N2CCCCC2)nc2ccccc2c1=O)N1CCN(c2ccccn2)CC1 | 643
